Measurements: BigSolDB 2.1

SMILES: CCCCCCCCC(=O)NCc1ccc(O)c(OC)c1
- solubility (mole fraction) (in DMSO, 293.2 K): 0.257
- solubility (mole fraction) (in DMSO, 298.2 K): 0.315
- solubility (mole fraction) (in DMSO, 303.2 K): 0.403
- solubility (mole fraction) (in DMSO, 308.2 K): 0.495
- solubility (mole fraction) (in DMSO, 313.2 K): 0.595
- solubility (mole fraction) (in DMSO, 318.2 K): 0.671
- solubility (mole fraction) (in DMSO, 323.2 K): 0.763
- solubility (mole fraction) (in MTBE, 293.2 K): 0.019
- solubility (mole fraction) (in MTBE, 298.2 K): 0.0472
- solubility (mole fraction) (in MTBE, 303.2 K): 0.114
- solubility (mole fraction) (in MTBE, 308.2 K): 0.27
- solubility (mole fraction) (in MTBE, 313.2 K): 0.427
- solubility (mole fraction) (in MTBE, 318.2 K): 0.569
- solubility (mole fraction) (in MTBE, 323.2 K): 0.729
- solubility (mole fraction) (in acetone, 293.2 K): 0.161
- solubility (mole fraction) (in acetone, 298.2 K): 0.229
- solubility (mole fraction) (in acetone, 303.2 K): 0.299
- solubility (mole fraction) (in acetone, 308.2 K): 0.39
- solubility (mole fraction) (in acetone, 313.2 K): 0.499
- solubility (mole fraction) (in acetone, 318.2 K): 0.6
- solubility (mole fraction) (in acetone, 323.2 K): 0.714
- solubility (mole fraction) (in acetonitrile, 293.2 K): 0.0118
- solubility (mole fraction) (in acetonitrile, 298.2 K): 0.0357
- solubility (mole fraction) (in acetonitrile, 303.2 K): 0.0943
- solubility (mole fraction) (in acetonitrile, 308.2 K): 0.232
- solubility (mole fraction) (in acetonitrile, 313.2 K): 0.38
- solubility (mole fraction) (in acetonitrile, 318.2 K): 0.553
- solubility (mole fraction) (in acetonitrile, 323.2 K): 0.714
- solubility (mole fraction) (in ethyl acetate, 293.2 K): 0.0625
- solubility (mole fraction) (in ethyl acetate, 298.2 K): 0.117
- solubility (mole fraction) (in ethyl acetate, 303.2 K): 0.199
- solubility (mole fraction) (in ethyl acetate, 308.2 K): 0.309
- solubility (mole fraction) (in ethyl acetate, 313.2 K): 0.421
- solubility (mole fraction) (in ethyl acetate, 318.2 K): 0.566
- solubility (mole fraction) (in ethyl acetate, 323.2 K): 0.712
- solubility (mole fraction) (in methanol, 293.2 K): 0.219
- solubility (mole fraction) (in methanol, 298.2 K): 0.28
- solubility (mole fraction) (in methanol, 303.2 K): 0.349
- solubility (mole fraction) (in methanol, 308.2 K): 0.428
- solubility (mole fraction) (in methanol, 313.2 K): 0.489
- solubility (mole fraction) (in methanol, 318.2 K): 0.583
- solubility (mole fraction) (in methanol, 323.2 K): 0.736
- solubility (mole fraction) (in n-hexane, 293.2 K): 4.06e-05
- solubility (mole fraction) (in n-hexane, 298.2 K): 7e-05
- solubility (mole fraction) (in n-hexane, 303.2 K): 0.000119
- solubility (mole fraction) (in n-hexane, 308.2 K): 0.000189
- solubility (mole fraction) (in n-hexane, 313.2 K): 0.000296
- solubility (mole fraction) (in n-hexane, 318.2 K): 0.000457
- solubility (mole fraction) (in n-hexane, 323.2 K): 0.000595
- solubility (mole fraction) (in water, 293.2 K): 1.64e-05
- solubility (mole fraction) (in water, 298.2 K): 1.93e-05
- solubility (mole fraction) (in water, 303.2 K): 2.32e-05
- solubility (mole fraction) (in water, 308.2 K): 2.71e-05
- solubility (mole fraction) (in water, 313.2 K): 3.24e-05
- solubility (mole fraction) (in water, 318.2 K): 3.7e-05
- solubility (mole fraction) (in water, 323.2 K): 4.27e-05
